The text below walks through data of patent US20110039770A1, “INHIBITORS OF PROTEIN KINASE C ISOFORMS AND USES THEREOF” (PHARMAGAP INC., priority 2005, published 2011).

As usually defined, the inhibition is the percentage by which the read-out fell short of the control.

For one data set, the target named is T1, PKC-α (Rattus norvegicus, UniProt P05696).
T1 construct: C6Cx43 cells (rat glioma transfected cells overexpressing connexin 43); endogenous in cells; host or cells: C6Cx43 rat glioma cells (transfected with connexin 43, not with PKC)
The experiment in a line: Competition of PRE with PKC-α antibody binding on Western blot, Protocol A, C6Cx43 lysate. Conditions: C6Cx43 cells. The procedure: The ability of the PRE 1, 2 and 3 (see Table 3 above) to interfere with the binding of a PKC-α-specific polyclonal antibody to PKC-α was determined using the following protocol.
Cell lysates from either IMR-32 (human neuroblastoma) cells or C6Cx43 cells (rat glioma transfected cells overexpressing connexin 43) were obtained using standard protocols and the proteins of the lysate were separated by SDS PAGE electrophoresis and electrotransferred onto a nitrocellulose membrane. The membrane was incubated for 30 minutes in blocking buffer (TBST) containing the test peptide at either 5× or 20× the concentrations of the primary antibody. A primary polyclonal antibody specific for PKC-α (Santa Cruz Biotechnology, Inc., CA) was then added (15 μg/ml) and the membrane incubated for a further 45 minutes. Finally, the primary antibody was detected with a secondary antibody conjugated to alkaline phosphatase using standard procedures. The intensity of the band corresponding to PKC-α was assessed by scanning and densitometry using the Gel-Pro software (Media Cybernetics) to obtain relative band intensities (average of 3 replicas). Control assays were conducted as described above except that blocking buffer without peptide was used.
The results are expressed as relative band intensity and as a percentage of the intensity of the corresponding band in the control assay (“Relative intensity (%)”). “% inhibition” relates to the percentage of the PKC-α band that is inaccessible to the antibody.
A general note: In western blotting, separated proteins are transferred to a membrane and probed.

The subject of a further data set is MDA MB231 cells. Kind of data set: Matrigel invasion/migration with EGF as chemoattractant. It counts as cell-based, human. The conditions noted are these: 24 h; 10 ng/ml EGF. The protocol: Experiments were conducted to investigate the effect of compound TIM 10 (5 mM dose) on migration of human breast cancer cells (MDA MB231) with and without EGF (10 ng/ml) as a chemo-attractant. A standard a two-chamber culture system (BD BIOcoat™ Matrigel™ Invasion Chamber; BD Biosciences Clont, Discovery labware, Immunocytometry system Pharmingen) was employed for these experiments. Control chambers used in the following experiment are similar to the invasion chambers except that no Matrigel matrix is present, thus allowing cells to freely reach the lower membrane surface through the membrane pores.
The ability of compound TIM 10 to inhibit invasion/migration of MDA MB231 cells in the presence of the chemoattractant EGF was measured as described above using EGF 10 ng/mL as the chemoattractant.

The target in the next data set is PKC delta (Homo sapiens, UniProt Q05655). Kind of data set: Kinase-Glo Luminescent Kinase Assay. The data set is classed as biochemical. Conditions: read-out: % Inhibition PKC-δ. The procedure: (§1) Compounds TIM 10, 11, 13, 14, 15, and 18-22 (see Table 28) were tested for their ability to inhibit the activity of PKC-alpha, beta 1, delta and epsilon isoforms the Kinase-Glo™ Luminescent Kinase Assay (Promega, Cat # V6712/3/4) following the manufacturer's instructions.
Chain of PKC delta (Q05655 whole entry, canonical isoform): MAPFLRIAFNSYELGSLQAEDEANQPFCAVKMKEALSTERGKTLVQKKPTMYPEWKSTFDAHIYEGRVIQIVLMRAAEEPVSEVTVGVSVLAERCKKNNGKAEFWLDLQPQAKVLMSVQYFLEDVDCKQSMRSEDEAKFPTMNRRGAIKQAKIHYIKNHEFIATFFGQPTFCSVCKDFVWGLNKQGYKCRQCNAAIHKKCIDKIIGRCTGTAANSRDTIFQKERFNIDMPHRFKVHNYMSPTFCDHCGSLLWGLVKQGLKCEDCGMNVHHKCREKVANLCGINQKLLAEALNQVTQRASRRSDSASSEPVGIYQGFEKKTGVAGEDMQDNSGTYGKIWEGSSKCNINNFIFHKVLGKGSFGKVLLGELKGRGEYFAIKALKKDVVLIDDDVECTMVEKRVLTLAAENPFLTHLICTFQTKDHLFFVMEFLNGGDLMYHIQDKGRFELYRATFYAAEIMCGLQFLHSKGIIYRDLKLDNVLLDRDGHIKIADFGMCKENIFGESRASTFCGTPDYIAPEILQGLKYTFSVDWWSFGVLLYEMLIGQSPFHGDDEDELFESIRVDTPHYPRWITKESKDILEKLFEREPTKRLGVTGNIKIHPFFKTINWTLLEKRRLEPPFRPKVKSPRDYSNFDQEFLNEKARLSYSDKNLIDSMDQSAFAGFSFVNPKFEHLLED
On the technique in general: Kinase-Glo reads ATP consumption through a luciferase reaction.

A further data set addresses PKC alpha (Homo sapiens, UniProt P17252). Kind of data set: Kinase-Glo Luminescent Kinase Assay. It counts as biochemical. The conditions noted are these: read-out: % Inhibition PKC-α. The protocol:
as §1

A short description of data set [1]: Repeat-dose toxicity study in mice. Conditions: 72-hour dosing schedule up to 75 days, subcutaneous. It counts as in vivo, mouse. From the text:
A dosage of 25 micrograms per mouse was provided to a cohort of mice by subcutaneous injection. No physiological, behavioral or external signs of toxicity were observed.

A short description of data set [2]: Acute toxicity studies in mice (IV, topical, oral). The data set is classed as in vivo, mouse. The procedure: Acute toxicity studies were performed on mice using three different delivery routes: IV (tail), topical and oral. […] The LD50 obtained from the IV study was determined to be 750 μg-1 mg per mouse. The “no observed adverse effect level” was determined to be 250 μg per mouse, approximately twice the concentration of TIM 10 provided to mice in the studies discussed above.

Where a SMILES comes first, the peptide text is derived from it. The star is where a group is joined. PNA(A) = NCCN(CC(=O)*)C(=O)Cn1cnc2c(N)ncnc21

For the compound `CC[C@H](C)[C@H](NC(=O)[C@H](CO)NC(=O)[C@@H](NC(=O)CNC(=O)[C@@H](NC(=O)[C@H](CC(C)C)NC(=O)[C@H](CC(N)=O)NC(=O)[C@H](CCC(N)=O)NC(=O)[C@H](C)NC(=O)[C@H](CC(=O)O)NC(=O)CNC(=O)CNC(=O)[C@H](CCCCN)NC(=O)[C@@H](NC(=O)[C@H](CCC(=O)O)NC(=O)[C@H](CCC(N)=O)NC(=O)[C@@H](NC(=O)CNC(=O)[C@H](CCCCN)NC(=O)[C@H](C)NC(C)=O)[C@@H](C)CC)C(C)C)[C@@H](C)CC)[C@@H](C)CC)C(N)=O` [PRE 3] (Ac-AKGIQEVKGGDAQNLIGISI-NH2), the “Band Intensity” value is 0.909 on PKC-α (75 μg); 0.888 on PKC-α (300 μg); 0.889 at PKC-α (600 μg); 0.603 at PKC-α (3.75 mg); 0.599 at PKC-α (5.25 mg); 0.589 at PKC-α (7.5 mg).
As for `CC[C@H](C)[C@H](NC(=O)[C@H](CO)NC(=O)[C@@H](NC(=O)CNC(=O)[C@@H](NC(=O)[C@H](CC(C)C)NC(=O)[C@H](CC(N)=O)NC(=O)[C@H](CCC(N)=O)NC(=O)[C@H](C)NC(=O)[C@H](CC(=O)O)NC(=O)[C@H](CCCCN)NC(=O)CNC(=O)CNC(=O)CNC(=O)CNC(=O)CNC(=O)CNC(=O)CNC(=O)[C@H](CC(C)C)NC(=O)[C@H](CCCNC(=N)N)NC(=O)[C@H](Cc1ccccc1)NC(=O)[C@H](CCCCNC(=O)CN(CCN)C(=O)Cn1cnc2c(N)ncnc21)NC(=O)[C@H](CCCNC(=N)N)NC(=O)[C@H](CCCNC(=N)N)NC(=O)[C@H](Cc1ccccc1)NC(C)=O)[C@@H](C)CC)[C@@H](C)CC)C(N)=O` [TIM 10] (Ac-FRRK(PNA(A))FRLGGGGGGGKDAQNLIGISI-NH2), in the data set with MDA MB231 cells, the “inhibition in cell growth” value was found to be 25%. In addition, the figures for the inhibition at 15 µM at PKC delta (15.0 μM) and on PKC alpha (15.0 μM) were 15.8% and 31.4%, respectively. Besides, the figures for the inhibition at 30 µM on PKC delta (30.0 μM) and at PKC alpha (30.0 μM) were 22.1% and 28.6%, respectively. For the same compound, the “toxicity on repeated dosing” value in data set [1] is listed as “no evidence of toxicity”; in data set [1] (listed as PhGalpha1) it was “No evidence of toxicity”. The “no observed adverse effect level” value in data set [2] (IV study) came to 250 μg per mouse. The toxic effects entry in data set [2] (topically or orally) was “No toxic effects were observed at any dose”.
